“And” between values parts separate entries of the source, which are not always exact repeats. Identical values can stand only once.
Assays:
[1] = target: mMC3R (Mus musculus, UniProt P33033); assay: AlphaScreen cAMP agonist assay, HEK293 cells stably expressing mMC3R; settings: for mMC3R agonist efficacy (in words): relative to NDP-MSH, full = >90% receptor activation; for mMC3R percent maximal stimulatory response (compared to NDP-MSH): at 1 mM, not enough stimulation to determine EC50; for mMC3R partial agonist efficacy bin: sigmoidal curve, efficacy <90% of NDP-MSH
Chain of mMC3R (P33033 whole entry): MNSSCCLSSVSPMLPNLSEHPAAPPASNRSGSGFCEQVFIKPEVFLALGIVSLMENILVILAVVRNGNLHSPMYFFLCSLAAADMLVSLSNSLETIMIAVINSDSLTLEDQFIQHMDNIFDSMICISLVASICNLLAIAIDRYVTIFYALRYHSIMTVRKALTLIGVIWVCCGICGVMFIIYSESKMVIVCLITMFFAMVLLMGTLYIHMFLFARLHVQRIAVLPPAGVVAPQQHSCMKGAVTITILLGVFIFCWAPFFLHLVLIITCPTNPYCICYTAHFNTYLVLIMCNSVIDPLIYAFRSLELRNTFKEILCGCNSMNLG
Method: (§1) Pyrrolidine bis-cyclic guanidine compounds were assessed for biological activity using the AlphaScreen cAMP kit with HEK293 cells stably expressing the mMC1R, mMC3R, mMC4R, or mMC5R, as previously described [37, 38, 39]. […] Compounds were assayed for agonist activity in a 7-point dose–response curve (10^−3 to 10^−9 M). […] The purified compounds were dissolved in DMSO at a stock concentration of 10^−1 M and assayed using HEK293 cells stably expressing the mouse MC1R, MC3R, MC4R, and MC5R using the AlphaScreen cAMP bioassay (PerkinElmer, Waltham, MA, USA) according to the manufacturer’s instructions and as previously described [37, 38, 39].
(§2) Briefly, cells 70−90% confluent were dislodged with Versene (Gibco, Waltham, MA, USA) at 37 °C and 10,000 cells/well were plated in a 384-well plate (Optiplate, PerkinElmer, Waltham, MA, USA) with 10 μL of freshly prepared stimulation buffer (1× HBSS, 5 mM HEPES, 0.5 mM IBMX, 0.1% BSA, pH = 7.4) with 0.5 μg of anti-cAMP acceptor beads per well. The cells were stimulated with the addition of 5 μL of stimulation buffer containing compound or forskolin (10^−4 M) and incubated in the dark at room temperature for 2 h. Following stimulation, streptavidin donor beads (0.5 μg) and biotinylated cAMP (0.62 μmol) were added to the wells in a green light environment with 10 μL of lysis buffer (5 mM HEPES, 0.3% Tween-20, 0.1% BSA, pH = 7.4) and the plates were incubated in the dark at room temperature for an additional 2 h. Plates were read on a Enspire (PerkinElmer, Waltham, MA, USA) Alpha plate reader using a pre-normalized assay protocol (set by the manufacturer).

[2] = target: T1, mMC4R (Mus musculus, UniProt P56450); settings: antagonist, Schild analysis with agonist NDP-MSH; mean ± SEM
T1 sequence (P56450 whole entry): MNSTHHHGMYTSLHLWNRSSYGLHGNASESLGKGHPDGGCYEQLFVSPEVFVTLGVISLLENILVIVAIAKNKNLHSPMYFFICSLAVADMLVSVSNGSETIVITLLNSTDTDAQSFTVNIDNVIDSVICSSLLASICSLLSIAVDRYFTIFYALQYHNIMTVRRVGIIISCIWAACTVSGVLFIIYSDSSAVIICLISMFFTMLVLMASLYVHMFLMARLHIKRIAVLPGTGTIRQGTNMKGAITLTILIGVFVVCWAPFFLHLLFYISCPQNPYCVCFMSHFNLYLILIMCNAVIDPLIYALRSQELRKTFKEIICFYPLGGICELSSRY
Method: as §1, §2

[3] = target: T1, mMC4R; assay: cell-based
Method: as §1, §2

[4] = target: mMC5R (Mus musculus, UniProt P41149); assay: AlphaScreen cAMP agonist assay, HEK293 cells stably expressing mMC5R; settings: for mMC5R partial agonist efficacy bin: sigmoidal curve, efficacy <90% of NDP-MSH
Chain of mMC5R (P41149 whole entry): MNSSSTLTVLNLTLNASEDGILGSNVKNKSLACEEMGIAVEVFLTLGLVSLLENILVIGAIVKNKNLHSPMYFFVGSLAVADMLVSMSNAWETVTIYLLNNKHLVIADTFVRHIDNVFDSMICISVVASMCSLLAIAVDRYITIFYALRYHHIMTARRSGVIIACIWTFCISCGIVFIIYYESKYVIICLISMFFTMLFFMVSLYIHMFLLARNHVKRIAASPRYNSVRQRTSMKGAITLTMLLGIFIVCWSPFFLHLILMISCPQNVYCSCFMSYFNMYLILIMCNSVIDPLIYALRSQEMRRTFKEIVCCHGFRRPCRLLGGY

[5] = target: mMC1R (Mus musculus, UniProt Q01727); assay: AlphaScreen cAMP agonist assay, HEK293 cells stably expressing mMC1R; settings: for mMC1R partial agonist efficacy bin: sigmoidal curve, efficacy <90% of NDP-MSH; for mMC1R percent maximal stimulatory response (compared to NDP-MSH): at 1 mM, not enough stimulation to determine EC50
Chain of mMC1R (Q01727 whole entry): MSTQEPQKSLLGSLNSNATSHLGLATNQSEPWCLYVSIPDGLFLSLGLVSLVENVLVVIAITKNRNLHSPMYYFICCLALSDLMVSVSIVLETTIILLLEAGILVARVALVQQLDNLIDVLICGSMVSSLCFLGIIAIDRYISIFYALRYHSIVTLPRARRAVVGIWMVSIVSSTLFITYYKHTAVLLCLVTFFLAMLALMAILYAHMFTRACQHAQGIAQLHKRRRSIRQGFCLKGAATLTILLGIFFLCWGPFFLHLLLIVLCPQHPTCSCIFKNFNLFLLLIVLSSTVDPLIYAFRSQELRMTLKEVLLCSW
Method: as §1, §2

[6] = target: T1, mMC4R; assay: AlphaScreen cAMP agonist assay, HEK293 cells stably expressing mMC4R; settings: for mMC4R percent maximal stimulatory response (compared to NDP-MSH): at 1 mM, not enough stimulation to determine EC50; for mMC4R partial agonist efficacy bin: sigmoidal curve, efficacy <90% of NDP-MSH
Method: as §1, §2

SMILES | EC50 [1] | EC50 [4] | EC50 [5] | mMC4R percent maximal stimulatory response (compared to NDP-MSH) [6] | mMC3R percent maximal stimulatory response (compared to NDP-MSH) [1] | mMC3R partial agonist efficacy bin [1] | also measured
CC(C)C[C@@H]1CNC(=N)N1C[C@@H]1CCCN1C[C@@H](Cc1ccccc1)N1CCN(CC2CCC(C(C)(C)C)CC2)C1=N (stereo partly shown) [Compound 2718.022] | 0.38 ± 0.07 µM | 0.32 ± 0.01 µM | 0.4 ± 0.04 µM |  |  |  | mMC3R agonist efficacy (in words) [1]: full agonist efficacy; mMC4R pA2 [2]: 6.1; Kb [3]: 0.794 µM
C[C@H](O)[C@@H]1CN([C@H](Cc2ccccc2)CN2CCC[C@H]2CN2CCNC2=N)C(=N)N1CC1CCC(C(C)(C)C)CC1 (stereo partly shown) [Compound 2718.024] | 3 ± 0.7 µM | 0.48 ± 0.05 µM | 0.39 ± 0.05 µM | 50% @ 1 mM |  |  | fold decreased mMC3R agonist potency ([1]; relative to 2718.001): 11 fold and 10 fold; mMC3R agonist efficacy (in words) [1]: full agonist efficacy; mMC4R pA2 [2]: 6.3; Kb [3]: 0.501 µM
CC(C)C[C@@H]1CNC(=N)N1C[C@@H]1CCCN1C[C@@H](CC1CCCCC1)N1CCN(CC2CCC(C(C)(C)C)CC2)C1=N (stereo partly shown) [Compound 2718.025] | 1 ± 0.3 µM | 0.6 ± 0.1 µM | 0.51 ± 0.09 µM | 60% @ 1 mM |  |  | fold decreased mMC3R agonist potency ([1]; relative to 2718.002): 4 fold; mMC3R agonist efficacy (in words) [1]: full agonist efficacy; mMC4R pA2 [2]: 6.1; Kb [3]: 0.794 µM
C[C@H](O)[C@@H]1CN([C@H](CC2CCCCC2)CN2CCC[C@H]2CN2CCNC2=N)C(=N)N1CC1CCC(C(C)(C)C)CC1 (stereo partly shown) [Compound 2718.026] | 2.6 ± 0.2 µM | 0.3 ± 0.01 µM | 0.46 ± 0.03 µM |  |  |  | fold decreased mMC3R agonist potency ([1]; relative to 2718.002): 11 fold and 10 fold; mMC3R agonist efficacy (in words) [1]: full agonist efficacy; mMC4R pA2 [2]: 6.2; Kb [3]: 0.631 µM; EC50 [6]: 1.8 ± 0.5 µM; mMC4R partial agonist efficacy bin [6]: A (A (20–50% receptor activation))
CC(C)[C@@H]1CNC(=N)N1C[C@@H]1CCCN1C[C@@H](CC1CCCCC1)N1CCN(CC2CCC(C(C)(C)C)CC2)C1=N (stereo partly shown) [Compound 2718.027] | 2.1 ± 0.2 µM | 0.51 ± 0.07 µM | 0.34 ± 0.03 µM | 45% @ 1 mM |  |  | mMC3R agonist efficacy (in words) [1]: full agonist efficacy; Kb [3]: 0.631 µM
CC(C)C[C@H]1CNC(=N)N1C[C@@H]1CCCN1C[C@@H](Cc1ccccc1)N1C[C@H]([C@@H](C)O)N(CC2CCC(C(C)(C)C)CC2)C1=N (stereo partly shown) [Compound 2718.037] |  | 7 ± 1 µM | 0.9 ± 0.2 µM | 55% @ 1 mM | 50% @ 1 mM |  | mMC5R partial agonist efficacy bin [4]: B (B (51–90% receptor activation)); mMC1R partial agonist efficacy bin [5]: B (B (51–90% receptor activation))
CC(C)C[C@@H]1CNC(=N)N1C[C@H]1CCCN1C[C@H](Cc1ccccc1)N1C[C@@H]([C@H](C)O)N(CC2CCC(C(C)(C)C)CC2)C1=N (stereo partly shown) [Compound 2718.038] | 5.9 ± 0.9 µM | 1.4 ± 0.3 µM | 0.6 ± 0.1 µM |  |  | B (B (51–90% receptor activation)) | fold decreased mMC5R agonist potency ([4]; relative to 2718.001): 5 fold; EC50 [6]: 1.6 ± 0.3 µM; mMC4R partial agonist efficacy bin [6]: B (B (51–90% receptor activation))
CC(C)C[C@H]1CNC(=N)N1C[C@@H]1CCCN1C[C@H](Cc1ccccc1)N1C[C@@H]([C@H](C)O)N(CC2CCC(C(C)(C)C)CC2)C1=N (stereo partly shown) [Compound 2718.039] |  | 45 µM | 4 ± 2 µM | 55% @ 1 mM | 50% @ 1 mM |  | mMC5R partial agonist efficacy bin [4]: B (B (51–90% receptor activation)); mMC1R partial agonist efficacy bin [5]: B (B (51–90% receptor activation))
CC(C)C[C@H]1CNC(=N)N1C[C@H]1CCCN1C[C@@H](Cc1ccccc1)N1C[C@@H]([C@H](C)O)N(CC2CCC(C(C)(C)C)CC2)C1=N (stereo partly shown) [Compound 2718.040] | 3.7 ± 0.4 µM | 0.5 ± 0.03 µM | 0.9 ± 0.3 µM | 60% @ 1 mM |  | B (B (51–90% receptor activation)) | 
CC(C)C[C@@H]1CNC(=N)N1C[C@H]1CCCN1C[C@H](Cc1ccccc1)N1C[C@H]([C@@H](C)O)N(CC2CCC(C(C)(C)C)CC2)C1=N (stereo partly shown) [Compound 2718.041] |  | 8 ± 1 µM | 40 µM | 60% @ 1 mM | 60% @ 1 mM |  | mMC5R partial agonist efficacy bin [4]: B (B (51–90% receptor activation)); fold decreased mMC1R agonist potency ([5]; relative to 2718.001): 125 fold
CC(C)C[C@H]1CNC(=N)N1C[C@@H]1CCCN1C[C@H](Cc1ccccc1)N1C[C@H]([C@@H](C)O)N(CC2CCC(C(C)(C)C)CC2)C1=N (stereo partly shown) [Compound 2718.042] |  | 21.3 µM | 2.9 ± 0.2 µM | 65% @ 1 mM | 65% @ 1 mM |  | mMC5R partial agonist efficacy bin [4]: B (B (51–90% receptor activation)); fold decreased mMC1R agonist potency ([5]; relative to 2718.001): 9 fold
CC(C)C[C@H]1CNC(=N)N1C[C@H]1CCCN1C[C@@H](Cc1ccccc1)N1C[C@H]([C@@H](C)O)N(CC2CCC(C(C)(C)C)CC2)C1=N (stereo partly shown) [Compound 2718.043] |  | 8 ± 2 µM | 3.5 ± 0.2 µM | 55% @ 1 mM | 55% @ 1 mM |  | mMC5R partial agonist efficacy bin [4]: B (B (51–90% receptor activation)); mMC1R partial agonist efficacy bin [5]: B (B (51–90% receptor activation))
CC(C)C[C@H]1CNC(=N)N1C[C@H]1CCCN1C[C@H](Cc1ccccc1)N1C[C@@H]([C@H](C)O)N(CC2CCC(C(C)(C)C)CC2)C1=N (stereo partly shown) [Compound 2718.044] | 5.6 ± 0.8 µM | 2.9 ± 0.9 µM | 7 ± 2 µM | 50% @ 1 mM |  | A (A (20–50% receptor activation)) | mMC5R partial agonist efficacy bin [4]: B (B (51–90% receptor activation)); mMC1R partial agonist efficacy bin [5]: B (B (51–90% receptor activation))
CC(C)C[C@@H]1CNC(=N)N1C[C@@H]1CCCN1C[C@@H](CC1CCCCC1)N1C[C@H]([C@@H](C)O)N(CC2CCC(C(C)(C)C)CC2)C1=N (stereo partly shown) [Compound 2718.045] | 3.5 ± 0.2 µM | 2.2 ± 0.7 µM | 1 ± 0.1 µM | 50% @ 1 mM |  | B (B (51–90% receptor activation)) | fold decreased mMC5R agonist potency ([4]; relative to 2718.002): 8 fold; fold decreased mMC1R agonist potency ([5]; relative to 2718.002): 4 fold
CC(C)C[C@@H]1CNC(=N)N1C[C@@H]1CCCN1C[C@H](CC1CCCCC1)N1C[C@@H]([C@H](C)O)N(CC2CCC(C(C)(C)C)CC2)C1=N (stereo partly shown) [Compound 2718.046] | 9 ± 1 µM | 5 ± 1 µM | 1.8 ± 0.2 µM | 55% @ 1 mM |  | B (B (51–90% receptor activation)) | fold decreased mMC5R agonist potency ([4]; relative to 2718.002): 17 fold; fold decreased mMC1R agonist potency ([5]; relative to 2718.002): 7 fold
CCC[C@H]1CN([C@H](CC2CCCCC2)CN2CCC[C@H]2CN2C(=N)NC[C@H]2C(C)C)C(=N)N1CC1CCC(C(C)(C)C)CC1 (stereo partly shown) [Compound 2718.050] | 27 µM | 4.2 ± 0.5 µM | 3.2 ± 0.5 µM |  |  | B (B (51–90% receptor activation)) | EC50 [6]: 39 µM; mMC4R partial agonist efficacy bin [6]: B (B (51–90% receptor activation)); fold decreased mMC1R agonist potency ([5]; relative to 2718.003): 5 fold
CCC[C@@H]1CN([C@@H](CC2CCCCC2)CN2CCC[C@H]2CN2C(=N)NC[C@H]2C(C)C)C(=N)N1CC1CCC(C(C)(C)C)CC1 (stereo partly shown) [Compound 2718.051] |  | 11 µM | 6 ± 2 µM |  | 65% @ 1 mM |  | fold decreased mMC5R agonist potency ([4]; relative to 2718.003): 9 fold; EC50 [6]: 50 µM; mMC4R partial agonist efficacy bin [6]: B (B (51–90% receptor activation)); fold decreased mMC1R agonist potency ([5]; relative to 2718.003): 9 fold
CCC[C@@H]1CN([C@H](CC2CCCCC2)CN2CCC[C@@H]2CN2C(=N)NC[C@H]2C(C)C)C(=N)N1CC1CCC(C(C)(C)C)CC1 (stereo partly shown) [Compound 2718.052] | 2.6 ± 0.1 µM | 2.92 ± 0.07 µM | 2.5 ± 0.3 µM |  |  | B (B (51–90% receptor activation)) | EC50 [6]: 12 µM; mMC4R partial agonist efficacy bin [6]: B (B (51–90% receptor activation)); fold decreased mMC1R agonist potency ([5]; relative to 2718.003): 4 fold
CCC[C@@H]1CN([C@H](CC2CCCCC2)CN2CCC[C@H]2CN2C(=N)NC[C@@H]2C(C)C)C(=N)N1CC1CCC(C(C)(C)C)CC1 (stereo partly shown) [Compound 2718.053] | 2.4 ± 0.2 µM | 2.4 ± 0.3 µM | 1 ± 0.3 µM | 60% @ 1 mM |  |  | mMC3R agonist efficacy (in words) [1]: full agonist efficacy; Kb [3]: 1.26 µM
CCC[C@H]1CN([C@@H](CC2CCCCC2)CN2CCC[C@@H]2CN2C(=N)NC[C@@H]2C(C)C)C(=N)N1CC1CCC(C(C)(C)C)CC1 (stereo partly shown) [Compound 2718.054] |  | 3.5 ± 0.3 µM |  | 60% @ 1 mM | 55% @ 1 mM |  | mMC1R percent maximal stimulatory response (compared to NDP-MSH) [5]: 65% @ 1 mM
CCCCC(CN1CCCC1CN1C(=N)NCC1CC(C)C)N1CC(C(C)O)N(CC2CCC(C(C)(C)C)CC2)C1=N (stereo not shown) [Compound 2718.060] | 2.2 ± 0.2 µM | 1.1 ± 0.3 µM | 2.2 ± 0.7 µM | 45% @ 1 mM |  | B (B (51–90% receptor activation)) | fold decreased mMC5R agonist potency ([4]; relative to 2718.002): 4 fold; mMC1R partial agonist efficacy bin [5]: B (B (51–90% receptor activation))
CC(C)CC1CNC(=N)N1CC1CCCN1CC(C)N1CC(C(C)O)N(CC2CCC(C(C)(C)C)CC2)C1=N (stereo not shown) [Compound 2718.061] |  |  |  |  | 20% @ 1 mM |  | mMC5R percent maximal stimulatory response (compared to NDP-MSH) ([4]; at 1 mM, not enough stimulation to determine EC50): 65% @ 1 mM; EC50 [6]: > 1000 µM; mMC1R percent maximal stimulatory response (compared to NDP-MSH) [5]: 65% @ 1 mM

— paper PMC10299128, “The Parallel Structure–Activity Relationship Screening of Three Compounds Identifies the Common Agonist Pharmacophore of Pyrrolidine Bis-Cyclic Guanidine Melanocortin-3 Receptor (MC3R) Small-Molecule Ligands” (International Journal of Molecular Sciences, 2023)
